Results taken from ChEMBL document CHEMBL6071205, “A New Frontier in Targeted Therapies: Harnessing PROTACs and Advanced Delivery Systems” (ACS Med Chem Lett, 2024).

Target: von Hippel-Lindau disease tumor suppressor/GTPase KRas (Homo sapiens, UniProt P01116+P40337, G12D)
Assay: PROTAC activity at VHL/KRAS G12D mutant in human ASPC1 cells assessed as induction of protein degradation incubated for 24 hrs by HiBiT based Nano-Glo luminescence assay
Assay type: cell-based

Sequence of von Hippel-Lindau disease tumor suppressor/GTPase KRas (P01116 whole entry G12D, stated change not applied): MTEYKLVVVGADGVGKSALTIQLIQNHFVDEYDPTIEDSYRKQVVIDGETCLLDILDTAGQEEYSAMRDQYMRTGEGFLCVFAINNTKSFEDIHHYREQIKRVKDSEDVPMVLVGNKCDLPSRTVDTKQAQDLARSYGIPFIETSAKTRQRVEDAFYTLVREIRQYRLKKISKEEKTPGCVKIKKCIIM
Sequence of von Hippel-Lindau disease tumor suppressor/GTPase KRas (P40337 whole entry, stated change not applied): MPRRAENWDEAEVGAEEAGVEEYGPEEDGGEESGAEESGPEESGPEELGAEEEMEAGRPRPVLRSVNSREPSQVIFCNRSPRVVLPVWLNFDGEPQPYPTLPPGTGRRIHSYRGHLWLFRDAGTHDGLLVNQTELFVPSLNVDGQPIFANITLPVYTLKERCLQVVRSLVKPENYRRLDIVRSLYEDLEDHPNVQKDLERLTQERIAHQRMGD

Work on `C#Cc1c(F)ccc2cccc(-c3ncc4c(N5CC6CCC(C5)N6)nc(OC[C@@]56CCCN5[C@H](COC(=O)N5CCC7(CCC(CCc8ccc9c(c8)n(C)c(=O)n9C8CCC(=O)NC8=O)CC7)CC5)CC6)nc4c3F)c12` (some centres not stated) yielded a DC50 of no less than 100 nM.

`C#Cc1c(F)ccc2cccc(-c3ncc4c(N5CC6CCC(C5)N6)nc(OC[C@@]56CCCN5[C@H](COC(=O)N5CC(CN7CCN(c8ccc9c(c8)n(C)c(=O)n9C8CCC(=O)NC8=O)CC7)C5)CC6)nc4c3F)c12` (some centres not stated) gave a DC50 of no more than 100 nM.

`C#Cc1c(F)ccc2cc(O)cc(-c3ncc4c(N5CC6CCC(C5)N6)nc(OC[C@@]56CCCN5[C@H](COC(=O)N5CCC(OCc7ccc8c(c7)n(C)c(=O)n8C7CCC(=O)NC7=O)CC5)CC6)nc4c3F)c12` (some centres not stated) gave a DC50 of no less than 100 nM.

For `C#Cc1c(F)ccc2cccc(-c3ncc4c(N5CC6CCC(C5)N6)nc(OC[C@@]56CCCN5[C@H](COC(=O)N5CCC(OCCCCCCc7ccc8c(c7)n(C)c(=O)n8C7CCC(=O)NC7=O)CC5)CC6)nc4c3F)c12` (some centres not stated), the DC50 was no more than 100 nM.

`C#Cc1c(F)ccc2cccc(-c3ncc4c(N5CC6CCC(C5)N6)nc(OC[C@@]56CCCN5[C@H](COC(=O)N5CCC(CC7CCN(Cc8ccc9c(c8)n(C)c(=O)n9C8CCC(=O)NC8=O)CC7)CC5)CC6)nc4c3F)c12` (some centres not stated) was tested, and the DC50 was no more than 100 nM.

With `C#Cc1c(F)ccc2cccc(-c3ncc4c(N5CC6CCC(C5)N6)nc(OC[C@@]56CCCN5[C@H](COC(=O)N5CCC(OC7CCN(Cc8ccc9c(c8)n(C)c(=O)n9C8CCC(=O)NC8=O)CC7)CC5)CC6)nc4c3F)c12` (some centres not stated) the DC50 was no more than 100 nM.

`C#Cc1c(F)ccc2cc(O)cc(-c3ncc4c(N5CC6CCC(C5)N6)nc(OC[C@@]56CCCN5[C@H](COC(=O)N5CCC(OCCCc7ccc8c(c7)n(C)c(=O)n8C7CCC(=O)NC7=O)CC5)CC6)nc4c3F)c12` (some centres not stated) showed a DC50 of no more than 100 nM.

`C#Cc1c(F)ccc2cccc(-c3ncc4c(N5CC6CCC(C5)N6)nc(OC[C@@]56CCCN5[C@H](COC(=O)N5CCN(C7CCN(Cc8ccc9c(c8)n(C)c(=O)n9C8CCC(=O)NC8=O)CC7)CC5)CC6)nc4c3F)c12` (some centres not stated) showed a DC50 of no more than 100 nM.

`C#Cc1c(F)ccc2cccc(-c3ncc4c(N5CC6CCC(C5)N6)nc(OC[C@@]56CCCN5[C@H](COC(=O)N5CCC(CN7CCC(c8ccc9c(c8)n(C)c(=O)n9C8CCC(=O)NC8=O)CC7)CC5)CC6)nc4c3F)c12` (some centres not stated) showed a DC50 of no more than 100 nM.

Compound `C#Cc1c(F)ccc2cccc(-c3ncc4c(N5CC6CCC(C5)N6)nc(OC[C@@]56CCCN5[C@H](COC(=O)N5CCC(OCCC#Cc7ccc8c(c7)n(C)c(=O)n8C7CCC(=O)NC7=O)CC5)CC6)nc4c3F)c12` (some centres not stated) has a DC50 of no more than 100 nM.

In the case of `C#Cc1c(F)ccc2cccc(-c3ncc4c(N5CC6CCC(C5)N6)nc(OC[C@@]56CCCN5[C@H](COC(=O)N5CCC(OCCCc7ccc8c(c7)n(C)c(=O)n8C7CCC(=O)NC7=O)CC5)CC6)nc4c3F)c12` (some centres not stated), the DC50 is reported as no more than 100 nM.

In the case of `C#Cc1c(F)ccc2cccc(-c3ncc4c(N5CC6CCC(C5)N6)nc(OC[C@@]56CCCN5[C@H](COC(=O)N5CCC(OC7CN(Cc8ccc9c(c8)n(C)c(=O)n9C8CCC(=O)NC8=O)C7)CC5)CC6)nc4c3F)c12` (some centres not stated), the DC50 is reported as no more than 100 nM.
